Reference: patent US20100197604A1, “USE OF PEPTIDE AS A THERAPEUTIC AGENT” (priority 2007, published 2010)

Legend:
CEM-SS cells = assay: Cytotoxicity in CEM-SS cells (MTS cell viability); details: peptide 10 micrograms per ml
HIV-1IIIB = assay: HIV-1 antiviral assay (CPE reduction, MTS); format: cell-based; details: peptide 10 micrograms per ml, 6 days post-infection
Streptococcus pneumoniae = format: cell-based; details: 5 micrograms per ml
MRSA = details: 5 micrograms per ml
Pseudomonas aeruginosa = format: cell-based; details: 5 micrograms per ml
HepG2-2.2.15 cells = assay: Cytotoxicity in HepG2-2.2.15 cells (dye uptake); details: test peptide 10 micrograms per ml
[1] = tested on: MRC-5 cells (human embryonal lung fibroblasts); details: 6 days

## Cc1cn([C@H]2C[C@H](N=[N+]=[N-])[C@@H](CO)O2)c(=O)[nH]c1=O [AZT]
CEM-SS cells
  % Cell viability: 97%
HIV-1IIIB
  % CPE reduction in HIV-1 infected CEM-SS cells: 99%

## CC[C@H](C)[C@H](NC(=O)[C@H](Cc1ccc(O)cc1)NC(=O)[C@@H](NC(=O)[C@H](CCCNC(=N)N)NC(=O)[C@@H](N)CC(=O)O)C(C)C)C(=O)N[C@@H](Cc1c[nH]cn1)C(=O)N1CCC[C@H]1C(=O)N[C@@H](Cc1ccccc1)C(=O)O [Angiotensin II]
Streptococcus pneumoniae
  % inhibition: 100.0%
MRSA
  % inhibition: 0.0%
Pseudomonas aeruginosa
  % inhibition: 0.0%

## Nc1ccn([C@@H]2CS[C@H](CO)O2)c(=O)n1 [Compound 3TC, Lamivudine]
HepG2-2.2.15 cells
  % Cell viability: 95.8%

## Nc1nc(O)c2ncn(COC(CO)CO)c2n1 [Ganciclovir]
[1]
  % Cell viability: 100%
